Results from ChEMBL document CHEMBL5096241, “Discovery of 3-Aminopyrazole Derivatives as New Potent and Orally Bioavailable AXL Inhibitors” (J Med Chem, 2022).
The source made the active and inactive calls. The rule behind the calls is not given here.

Legend:
BaF3 = assay: Antiproliferative activity against mouse BaF3 cells transfected with TEL-AXL assessed as inhibition of cell growth incubated for 72 hrs; assay type: functional, cell-based; settings: BaF3, 72 h
[1] = biological target: Receptor-type tyrosine-protein kinase FLT3 (Homo sapiens, UniProt P36888); assay: Binding affinity to FLT3 (unknown origin) assessed as dissociation constant by competition binding assay
[2] = biological target: Vascular endothelial growth factor receptor 3 (Homo sapiens, UniProt P35916); assay: Binding affinity to FLT4 (unknown origin) assessed as dissociation constant by competition binding assay
[3] = biological target: T1, Mast/stem cell growth factor receptor Kit (Homo sapiens, UniProt P10721); assay: Binding affinity to KIT (unknown origin) assessed as dissociation constant by competition binding assay
T1 sequence (P10721 whole entry): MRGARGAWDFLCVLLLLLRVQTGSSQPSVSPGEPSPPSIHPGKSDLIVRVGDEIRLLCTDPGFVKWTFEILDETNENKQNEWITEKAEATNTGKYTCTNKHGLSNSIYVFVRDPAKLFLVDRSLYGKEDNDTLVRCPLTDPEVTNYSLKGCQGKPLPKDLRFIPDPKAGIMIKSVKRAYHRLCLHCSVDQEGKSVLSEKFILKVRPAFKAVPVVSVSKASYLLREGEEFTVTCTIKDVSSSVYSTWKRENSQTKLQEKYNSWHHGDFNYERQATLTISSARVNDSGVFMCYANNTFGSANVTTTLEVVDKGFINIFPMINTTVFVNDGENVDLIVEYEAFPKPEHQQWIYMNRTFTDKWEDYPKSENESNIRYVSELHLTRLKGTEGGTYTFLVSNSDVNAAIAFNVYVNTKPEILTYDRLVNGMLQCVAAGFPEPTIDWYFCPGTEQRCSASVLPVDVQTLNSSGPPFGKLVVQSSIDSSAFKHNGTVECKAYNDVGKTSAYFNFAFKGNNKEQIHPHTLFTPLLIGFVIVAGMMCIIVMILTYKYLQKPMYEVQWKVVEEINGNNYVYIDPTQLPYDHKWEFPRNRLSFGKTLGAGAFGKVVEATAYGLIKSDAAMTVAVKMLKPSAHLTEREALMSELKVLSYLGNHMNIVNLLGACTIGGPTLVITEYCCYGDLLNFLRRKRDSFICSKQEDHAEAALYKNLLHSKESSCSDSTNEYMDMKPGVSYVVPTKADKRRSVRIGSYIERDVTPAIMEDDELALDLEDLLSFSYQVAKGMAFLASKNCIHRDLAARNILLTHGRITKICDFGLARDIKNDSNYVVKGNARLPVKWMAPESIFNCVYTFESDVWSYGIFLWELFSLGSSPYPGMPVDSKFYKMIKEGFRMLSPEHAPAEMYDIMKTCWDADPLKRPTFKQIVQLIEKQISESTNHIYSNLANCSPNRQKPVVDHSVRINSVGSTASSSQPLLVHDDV

[4] = biological target: Serine/threonine-protein kinase 10 (Homo sapiens, UniProt O94804); assay: Binding affinity to LOK (unknown origin) assessed as dissociation constant by competition binding assay
Chain of Serine/threonine-protein kinase 10 (O94804 whole entry): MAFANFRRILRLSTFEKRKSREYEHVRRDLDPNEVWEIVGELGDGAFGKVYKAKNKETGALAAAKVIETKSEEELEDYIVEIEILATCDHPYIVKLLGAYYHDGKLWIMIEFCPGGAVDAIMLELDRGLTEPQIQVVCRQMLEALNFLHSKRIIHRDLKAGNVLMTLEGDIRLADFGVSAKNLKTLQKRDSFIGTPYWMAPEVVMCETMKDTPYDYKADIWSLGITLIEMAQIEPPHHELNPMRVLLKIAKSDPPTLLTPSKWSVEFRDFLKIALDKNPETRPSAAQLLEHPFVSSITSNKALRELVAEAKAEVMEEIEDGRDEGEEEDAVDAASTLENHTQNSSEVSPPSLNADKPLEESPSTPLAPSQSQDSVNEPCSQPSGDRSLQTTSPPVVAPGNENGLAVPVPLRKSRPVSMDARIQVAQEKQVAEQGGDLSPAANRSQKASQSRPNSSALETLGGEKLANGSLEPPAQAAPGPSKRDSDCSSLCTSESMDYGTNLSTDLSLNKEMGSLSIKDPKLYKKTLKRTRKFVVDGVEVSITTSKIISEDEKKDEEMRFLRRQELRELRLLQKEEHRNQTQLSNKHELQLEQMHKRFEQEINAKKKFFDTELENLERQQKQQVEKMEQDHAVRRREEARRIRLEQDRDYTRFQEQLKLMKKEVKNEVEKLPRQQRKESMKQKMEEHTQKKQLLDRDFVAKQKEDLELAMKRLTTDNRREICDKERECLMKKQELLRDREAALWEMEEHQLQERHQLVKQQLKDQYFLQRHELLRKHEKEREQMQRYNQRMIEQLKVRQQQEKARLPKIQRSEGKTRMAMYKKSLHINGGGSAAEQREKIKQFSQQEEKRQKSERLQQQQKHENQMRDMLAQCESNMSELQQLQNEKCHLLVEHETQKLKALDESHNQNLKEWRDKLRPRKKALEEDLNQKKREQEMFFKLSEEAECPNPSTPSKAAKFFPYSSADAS

[5] = biological target: Hepatocyte growth factor receptor (Homo sapiens, UniProt P08581); assay: Binding affinity to MET (unknown origin) assessed as dissociation constant by competition binding assay
[6] = biological target: Macrophage-stimulating protein receptor (Homo sapiens, UniProt Q04912); assay: Binding affinity to […] (unknown origin) assessed as dissociation constant by competition binding assay
[7] = biological target: Platelet-derived growth factor receptor beta (Homo sapiens, UniProt P09619); assay: Binding affinity to PDGFRB (unknown origin) assessed as dissociation constant by competition binding assay
[8] = biological target: Proto-oncogene tyrosine-protein kinase receptor Ret (Homo sapiens, UniProt P07949); assay: Binding affinity to RET (unknown origin) assessed as dissociation constant by competition binding assay
Chain of Proto-oncogene tyrosine-protein kinase receptor Ret (P07949 whole entry): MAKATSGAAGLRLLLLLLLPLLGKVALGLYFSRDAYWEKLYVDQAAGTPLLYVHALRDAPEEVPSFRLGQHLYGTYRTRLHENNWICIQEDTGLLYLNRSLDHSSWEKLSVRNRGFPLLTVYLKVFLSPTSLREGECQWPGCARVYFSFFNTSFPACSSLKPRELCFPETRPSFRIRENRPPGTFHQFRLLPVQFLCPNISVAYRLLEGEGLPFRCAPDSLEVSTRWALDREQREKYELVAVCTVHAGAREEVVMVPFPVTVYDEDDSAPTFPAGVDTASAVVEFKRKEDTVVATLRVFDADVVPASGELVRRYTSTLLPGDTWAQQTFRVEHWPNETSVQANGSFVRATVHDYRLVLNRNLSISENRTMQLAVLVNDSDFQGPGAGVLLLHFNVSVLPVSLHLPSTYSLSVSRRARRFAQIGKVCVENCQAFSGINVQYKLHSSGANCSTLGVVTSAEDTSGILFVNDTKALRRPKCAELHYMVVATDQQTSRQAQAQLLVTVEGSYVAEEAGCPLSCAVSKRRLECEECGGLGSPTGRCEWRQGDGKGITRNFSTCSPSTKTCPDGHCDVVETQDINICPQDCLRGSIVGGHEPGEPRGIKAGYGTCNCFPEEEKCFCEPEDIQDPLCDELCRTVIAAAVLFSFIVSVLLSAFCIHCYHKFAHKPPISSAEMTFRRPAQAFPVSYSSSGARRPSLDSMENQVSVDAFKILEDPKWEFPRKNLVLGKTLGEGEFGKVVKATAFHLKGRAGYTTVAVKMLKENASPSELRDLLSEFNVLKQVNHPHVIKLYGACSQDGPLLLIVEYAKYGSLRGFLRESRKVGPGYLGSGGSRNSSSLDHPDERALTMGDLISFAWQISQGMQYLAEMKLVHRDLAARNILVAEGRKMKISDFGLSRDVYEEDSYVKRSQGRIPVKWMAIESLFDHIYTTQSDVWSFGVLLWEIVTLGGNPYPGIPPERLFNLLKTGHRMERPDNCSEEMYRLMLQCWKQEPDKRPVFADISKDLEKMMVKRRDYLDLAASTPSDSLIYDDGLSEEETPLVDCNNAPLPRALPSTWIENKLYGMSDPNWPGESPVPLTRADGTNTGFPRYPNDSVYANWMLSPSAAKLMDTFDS

[9] = biological target: Macrophage colony-stimulating factor 1 receptor (Homo sapiens, UniProt P07333); assay: Inhibition of CSF1R (unknown origin)
[10] = biological target: T1, Mast/stem cell growth factor receptor Kit; assay: Inhibition of KIT (unknown origin)
[11] = biological target: Serine/threonine-protein kinase AKT (Homo sapiens) (UniProt P31751+Q9Y243+P31749); assay: Inhibition of AKT phosphorylation at S473 residue in human MDA-MB-231 cells measured after 6 hrs by Western blot analysis; assay type: cell-based; settings: dose 0.8-500 nM, DDE = dose-dependent effect
Chain of Serine/threonine-protein kinase AKT (Homo sapiens) (P31749 whole entry, looked up): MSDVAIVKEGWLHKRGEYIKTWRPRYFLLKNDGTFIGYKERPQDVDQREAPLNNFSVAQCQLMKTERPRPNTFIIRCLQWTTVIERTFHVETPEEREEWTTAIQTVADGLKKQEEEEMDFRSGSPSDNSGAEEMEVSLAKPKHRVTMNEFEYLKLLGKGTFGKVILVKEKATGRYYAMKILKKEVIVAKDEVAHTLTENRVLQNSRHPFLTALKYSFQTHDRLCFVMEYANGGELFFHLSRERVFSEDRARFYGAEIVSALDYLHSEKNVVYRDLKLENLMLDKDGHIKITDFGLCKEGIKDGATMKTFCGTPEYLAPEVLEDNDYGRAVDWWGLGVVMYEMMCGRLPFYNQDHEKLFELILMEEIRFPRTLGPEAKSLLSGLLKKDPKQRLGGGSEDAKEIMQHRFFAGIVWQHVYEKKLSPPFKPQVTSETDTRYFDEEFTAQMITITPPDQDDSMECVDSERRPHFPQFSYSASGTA
Chain of Serine/threonine-protein kinase AKT (Homo sapiens) (P31751 whole entry, looked up): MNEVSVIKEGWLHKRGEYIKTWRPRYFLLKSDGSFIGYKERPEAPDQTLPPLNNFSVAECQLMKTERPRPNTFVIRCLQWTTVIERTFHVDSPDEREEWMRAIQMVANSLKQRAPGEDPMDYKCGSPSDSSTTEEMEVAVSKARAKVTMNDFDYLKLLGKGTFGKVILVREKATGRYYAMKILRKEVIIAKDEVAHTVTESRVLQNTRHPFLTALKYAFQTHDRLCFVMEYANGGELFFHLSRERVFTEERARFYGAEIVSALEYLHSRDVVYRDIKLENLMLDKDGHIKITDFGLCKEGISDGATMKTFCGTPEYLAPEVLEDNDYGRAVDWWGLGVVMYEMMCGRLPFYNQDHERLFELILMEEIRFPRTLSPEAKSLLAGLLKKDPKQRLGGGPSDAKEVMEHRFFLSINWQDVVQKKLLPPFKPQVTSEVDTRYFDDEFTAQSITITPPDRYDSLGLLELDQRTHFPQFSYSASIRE
Chain of Serine/threonine-protein kinase AKT (Homo sapiens) (Q9Y243 whole entry, looked up): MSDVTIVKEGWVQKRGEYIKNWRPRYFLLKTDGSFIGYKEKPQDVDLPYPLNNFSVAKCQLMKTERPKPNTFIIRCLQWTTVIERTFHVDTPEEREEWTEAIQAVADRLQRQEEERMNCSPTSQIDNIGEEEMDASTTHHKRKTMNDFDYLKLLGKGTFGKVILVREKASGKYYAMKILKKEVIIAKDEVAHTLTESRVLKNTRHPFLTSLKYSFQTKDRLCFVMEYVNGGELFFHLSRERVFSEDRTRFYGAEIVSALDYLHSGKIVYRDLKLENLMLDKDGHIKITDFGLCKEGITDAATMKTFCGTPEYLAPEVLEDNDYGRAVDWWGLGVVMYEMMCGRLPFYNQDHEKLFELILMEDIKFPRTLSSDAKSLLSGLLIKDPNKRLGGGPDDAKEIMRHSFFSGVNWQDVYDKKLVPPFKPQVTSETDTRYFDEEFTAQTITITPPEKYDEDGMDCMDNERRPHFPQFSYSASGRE

[12] = biological target: Tyrosine-protein kinase receptor UFO (Homo sapiens) (UniProt P30530); assay: Inhibition of AXL phosphorylation at Tyr702 residue in human MDA-MB-231 cells measured after 6 hrs by Western blot analysis; assay type: cell-based; settings: dose 0.8-500 nM, DDE = dose-dependent effect
[13] = biological target: Tyrosine-protein kinase receptor UFO (Mus musculus) (UniProt Q00993); assay: Inhibition of AXL phosphorylation at Tyr702 residue in mouse 4T1 cells measured after 6 hrs by Western blot analysis; assay type: cell-based; settings: dose 0.8-500 nM, DDE = dose-dependent effect
MDA-MB-231 = assay: Inhibition of TGF-beta induced epithelial mesenchymal transition process in human metastatic MDA-MB-231 cells assessed as restoration of E-cadherin expression incubated for 3 days by Western blot analysis; assay type: functional, cell-based; settings: dose 0.11-3 µM, time 3.0 day, DDE = dose-dependent effect
[14] = Inhibition of TGF-beta induced cell invasion in human MDA-MB-231 cells at 0.11 uM incubated for 24 hrs by crystal violet staining based transwell assay relative to control; assay type: functional
[15] = Inhibition of TGF-beta induced cell invasion in human MDA-MB-231 cells at 0.33 uM incubated for 24 hrs by crystal violet staining based transwell assay relative to control; assay type: functional
[16] = Inhibition of TGF-beta induced cell invasion in human MDA-MB-231 cells at 1 uM incubated for 24 hrs by crystal violet staining based transwell assay relative to control; assay type: functional
[17] = Half life in Sprague-Dawley rat at 5 mg/kg, iv measured for 96 hrs by LC-MS analysis; assay type: ADME, organism-based; settings: in vivo
[18] = Half life in Sprague-Dawley rat at 25 mg/kg, po measured for 96 hrs by LC-MS analysis; assay type: ADME, organism-based; settings: in vivo
[19] = Tmax in Sprague-Dawley rat at 5 mg/kg, iv measured for 96 hrs by LC-MS analysis; assay type: ADME, organism-based; settings: in vivo
[20] = Cmax in Sprague-Dawley rat at 5 mg/kg, iv measured for 96 hrs by LC-MS analysis; assay type: ADME, organism-based; design: time 96 hrs, dose 5 mg/kg, route iv; settings: in vivo
[21] = Cmax in Sprague-Dawley rat at 25 mg/kg, po measured for 96 hrs by LC-MS analysis; assay type: ADME, organism-based; design: dose 25 mg/kg, time 96 hrs, route po; settings: in vivo
[22] = AUClast in Sprague-Dawley rat at 25 mg/kg, po measured for 96 hrs by LC-MS analysis; assay type: ADME, organism-based; design: time 96 hrs, dose 25 mg/kg, route po; settings: in vivo
[23] = Observed AUCinfinity in Sprague-Dawley rat at 5 mg/kg, iv measured for 96 hrs by LC-MS analysis; assay type: ADME, organism-based; design: dose 5 mg/kg, time 96 hrs, route iv; settings: in vivo
[24] = Observed AUCinfinity in Sprague-Dawley rat at 25 mg/kg, po measured for 96 hrs by LC-MS analysis; assay type: ADME, organism-based; design: dose 25 mg/kg, time 96 hrs, route po; settings: in vivo
[25] = Observed MRTinfinity in Sprague-Dawley rat at 5 mg/kg, iv measured for 96 hrs by LC-MS analysis; assay type: ADME, organism-based; settings: in vivo
[26] = Observed MRTinfinity in Sprague-Dawley rat at 25 mg/kg, po measured for 96 hrs by LC-MS analysis; assay type: ADME, organism-based; settings: in vivo
[27] = Oral bioavailability in Sprague-Dawley rat at 25 mg/kg measured for 96 hrs by LC-MS analysis; assay type: ADME, organism-based; settings: in vivo
4T1 [28] = assay: Antitumor activity against metastatic mouse 4T1 cells implanted in BALB/c mouse assessed as tumor growth inhibition at 50 mg/kg, po qd administered for 14 consecutive days and measured every 2 days by electronic caliper method relative to control; assay type: functional; settings: 4T1, 336 h, time 14 day, read-out: TGI
[29] = Toxicity in BALB/c mouse implanted with mouse 4T1 cells assessed as body weight loss at 50 to 100 mg/kg, po qd administered for 14 consecutive days and measured every 2 days; assay type: organism-based; settings: in vivo, 336 h, dose 50-100 mg/kg, time 14 day
[30] = Toxicity in BALB/c mouse implanted with mouse 4T1 cells assessed as effect on implantation rate at 50 to 100 mg/kg, po qd administered for 14 consecutive days and measured every 2 days; assay type: organism-based; settings: in vivo, 336 h, dose 50-100 mg/kg, time 14 day
4T1 [31] = assay: In vivo inhibition of AXL phosphorylation in BALB/c mouse implanted with mouse 4T1 cells administered orally once a day for 14 days; assay type: functional, organism-based; settings: dose 50-100 mg/kg, route po, time 14.0 day, DDE = dose-dependent effect
4T1 [32] = assay: Antitumor activity against metastatic mouse 4T1 cells implanted in BALB/c mouse assessed as inhibition of liver micrometastasis at 50 to 100 mg/kg, po qd administered for 14 consecutive days by H & E staining based microscopic analysis; assay type: functional, organism-based; settings: dose 50-100 mg/kg, time 14.0 day
4T1 [33] = assay: Antitumor activity against metastatic mouse 4T1 cells implanted in BALB/c mouse assessed as reduction in size of liver metastases administered orally once daily for 14 consecutive days by H & E staining based microscopic analysis; assay type: functional; settings: dose 50-100 mg/kg, route po, time 14.0 day, DDE = dose-dependent effect
4T1 [34] = assay: Antitumor activity against metastatic mouse 4T1 cells implanted in BALB/c mouse assessed as reduction in number of liver metastases at 50 mg/kg, po qd administered for 14 consecutive days by H & E staining based microscopic analysis (reference value: 24.7 +/- 6.7); assay type: functional; settings: time 14 day
4T1 [35] = assay: Antitumor activity against metastatic mouse 4T1 cells implanted in BALB/c mouse assessed as reduction in number of liver metastases at 100 mg/kg, po qd administered for 14 consecutive days by H & E staining based microscopic analysis (reference value: 24.7 +/- 6.7); assay type: functional; settings: time 14 day

IC50 (BaF3): 4.7 nM
Kd [1]: 2.5 nM
Kd [2]: 19 nM
Kd [3]: 2.6 nM
Kd [4]: 880 nM
Kd [5]: > 1000 nM
Kd [6]: > 1000 nM
Kd [7]: 2.3 nM
Kd [8]: 600 nM
IC50 [9]: 26.7 nM
IC50 [10]: 151 nM
inhibition [11]: Dde
inhibition [12]: Dde
inhibition [13]: Dde
half-life [17]: 3.31 h
half-life [18]: 4.22 h
Tmax [19]: 4.8 min
Cmax [20]: 12300 ng/mL
Cmax [21]: 888 ng/mL
AUC(0-t) at 96 h [22]: 8410 ng·h/mL
AUC(0-inf) [23]: 11700 ng·h/mL
AUC(0-inf) [24]: 8630 ng·h/mL
MRT inf [25]: 1.82 h
MRT inf [26]: 6.55 h
bioavailability [27]: 14.4%
Structure (SMILES): COc1cc2c(Oc3ccc(Nc4nn(C)cc4C(=O)NC4CCCCC4)cc3F)ccnc2cc1OCCCN1CCOCC1
inhibition (MDA-MB-231): Dde
inhibition at 0.11 µM [14]: 22.6%
inhibition at 0.33 µM [15]: 34.8%
inhibition at 1 µM [16]: 56.5%
inhibition in vivo at 50 mg/kg (4T1 [28]): 78%
Activity [29]: Non-Toxic
Activity [30]: Non-Toxic
inhibition (4T1 [31]): Dde
inhibition (4T1 [32]): Active
Activity (4T1 [33]): Dde
Activity (4T1 [34]): 3.2
Activity (4T1 [35]): 2.8
